Results: US20130338190A1, “PHARMACEUTICALLY ACCEPTABLE SALT OF (E)-N-[4-[[3-CHLORO-4-(2-PYRIDYLMETHOXY)PHENYL]AMINO]-3-CYANO-7-ETHOXY-6-QUINOLYL]-3-[(2R)-1-METHYLPYRROLIDIN-2-YL]PROP-2-ENAMIDE, PREPARATION METHOD THEREOF, AND MEDICAL USE THEREOF” (priority 2011, published 2013)
Where a name gives a salt, the structure may show the parent alone. Read-outs that look alike come from different tables or passages of the source.

Legend:
[1] = test system: human epidermoid carcinoma A431 cells, which have high expression of EGFR; experiment: EGFR cell proliferation inhibition assay (SRB, 72 hours); type: cell-based; details: A431 cells, 72 hours, SRB, read-out: IC50 (EGFR/A431)
Protocol: The activity is represented by the IC50 value. The general procedures of the assay were as follows: the cancer cells A431 highly expressing EGFR were chosen and seeded in a 96-well cell culture plate at a suitable density (e.g., 5000 cells/mL medium). The cells were then incubated in a carbon dioxide incubator until they reached 85% confluence. Then, the cell culture medium was replaced by fresh medium containing the test compounds with serial dilutions (general 6 to 7 concentrations). The cells were put back in the incubator and cultured continuously for 72 hours. The activity of the test compounds for inhibiting the cell proliferation was determined by using a Sulforhodamine B (SRB) method. IC50 values were calculated by the rate of inhibition at various concentrations of the test compounds.

[2] = test system: human carcinoma SK-BR-3 cells, which have high expression of HER-2; experiment: HER-2 cell activity assay (SRB, 96 hours); type: cell-based; details: read-out: IC50 (HER-2/SK-BR-3)
Text: The following in vitro assay was to determine the activity of the compounds of the present invention for inhibiting the proliferation of human carcinoma SK-BR-3 cells, which have high expression of HER-2.
The following in vitro assay was to determine the activity of the test compounds for inhibiting the angiogenesis and proliferation of cancer cells, which have high expression of HER-2. The activity is represented by the IC50 value. The general procedure of the assay was as follows: the cancer cells line SK-BR-3 highly expressing HER-2 was chosen and the cells were seeded in a 96-well cell culture plate at a suitable density. The cells then were incubated in a carbon dioxide incubator until they reached 60% confluence. Then, the cell culture medium was replaced by fresh medium with the test compounds at various concentrations (6 to 7 concentrations). The cells were put back in the incubator and cultured continuously for 96 hours. The activity of the test compounds for inhibiting the cell proliferation was determined by using a Sulforhodamine B (SRB) method. IC50 values of test cells were calculated by the rate of inhibition at various concentrations of the test compounds.

[3] = molecular target: HER-2 kinase (Homo sapiens, UniProt P04626); experiment: HER-2 kinase activity assay (time-resolved fluorescence); type: biochemical; details: table of the HER-2 kinase activity assay; human-derived recombinant HER-2 kinase, 20 μM ATP, 25° C., 45 minutes; read-out: IC50 (HER-2/SK-BR-3)
Protocol: The in vitro HER-2 kinase activity was tested by the following assay.
The following assay was used to determine the activity of the compounds of the present invention for inhibiting HER-2 kinase. The half maximal inhibitory concentration IC50 (the concentration of the test compound showing 50% inhibition of the enzyme activity) of each compound was determined by incubating several different concentrations of the test compounds with a specific enzyme and substrate. […] The HER-2 kinase activity was determined by using a time-resolved fluorescence method.

[4] = Solubility assay; type: physicochemical
Protocol: According to the conventional solubility measurement, the solubility of a compound of formula (I) and salts thereof was determined in three different systems: water, physiological saline and methanol.

[5] = Pharmacokinetics assay in rats (LC/MS/MS of plasma); type: in vivo, Sprague Dawley (SD) rats; details: both sexes, Sprague-Dawley, rat, plasma, 25 mg/kg; for AUC(0-t): read-out: AUC0-t; for MRT: read-out: MRT; for Cmax: read-out: Cmax; for Vd/F: read-out: Vz/F; for bioavailability: oral absolute bioavailability, 25 mg/kg (calculated by the base part)
Protocol: The rats were used as test animals. The compound of formula (I) and other salts thereof were administrated intragastrically, and a maleate salt of the compound of formula (I) was injected into the tail vein to determine the drug concentration in plasma at different time points by an LC/MS/MS method. The pharmacokinetic behavior, characteristics and the oral absolute bioavailability of the present compounds were studied and evaluated in rats. […] 28 healthy adult Sprague Dawley (SD) rats, half male and half female, were purchased from SINO-BRITSH SIPPR/BK LAB. ANIMAL LTD., CO, License number: SCXK (Shanghai) 2008-0016, and divided into 7 groups (4 rats in each group). The intravenous injection group: a suitable amount of compounds was weighed, dissolved in DMSO and diluted with normal saline to the final volume. […] healthy adult SD rats, half male and half female, were divided into 7 groups (4 rats in each group). […] For the intravenous injection group, blood samples (0.2 mL) were taken from orbital sinus before administration and at 2 min, 15 min, 30 min, 1.0 […] and 36.0 h after administration, stored in heparinized tubes and centrifuged for 10 minutes at 3,500 rpm to separate blood plasma. The plasma samples were stored at -20° C. For the intragastrical administration group, blood samples were taken before administration and at 0.5, 1.0, 2.0, 3.0, 4.0, 6.0, 8.0, 12.0, 24.0 and 36.0 hours after administration. The method to treat the samples was the same as with the intravenous injection group. The rats were fed 2 hours after administration.

[6] = Solubility assay; type: physicochemical; remark: listed apart in the source

HER-2 kinase, sequence (P04626 23-1255): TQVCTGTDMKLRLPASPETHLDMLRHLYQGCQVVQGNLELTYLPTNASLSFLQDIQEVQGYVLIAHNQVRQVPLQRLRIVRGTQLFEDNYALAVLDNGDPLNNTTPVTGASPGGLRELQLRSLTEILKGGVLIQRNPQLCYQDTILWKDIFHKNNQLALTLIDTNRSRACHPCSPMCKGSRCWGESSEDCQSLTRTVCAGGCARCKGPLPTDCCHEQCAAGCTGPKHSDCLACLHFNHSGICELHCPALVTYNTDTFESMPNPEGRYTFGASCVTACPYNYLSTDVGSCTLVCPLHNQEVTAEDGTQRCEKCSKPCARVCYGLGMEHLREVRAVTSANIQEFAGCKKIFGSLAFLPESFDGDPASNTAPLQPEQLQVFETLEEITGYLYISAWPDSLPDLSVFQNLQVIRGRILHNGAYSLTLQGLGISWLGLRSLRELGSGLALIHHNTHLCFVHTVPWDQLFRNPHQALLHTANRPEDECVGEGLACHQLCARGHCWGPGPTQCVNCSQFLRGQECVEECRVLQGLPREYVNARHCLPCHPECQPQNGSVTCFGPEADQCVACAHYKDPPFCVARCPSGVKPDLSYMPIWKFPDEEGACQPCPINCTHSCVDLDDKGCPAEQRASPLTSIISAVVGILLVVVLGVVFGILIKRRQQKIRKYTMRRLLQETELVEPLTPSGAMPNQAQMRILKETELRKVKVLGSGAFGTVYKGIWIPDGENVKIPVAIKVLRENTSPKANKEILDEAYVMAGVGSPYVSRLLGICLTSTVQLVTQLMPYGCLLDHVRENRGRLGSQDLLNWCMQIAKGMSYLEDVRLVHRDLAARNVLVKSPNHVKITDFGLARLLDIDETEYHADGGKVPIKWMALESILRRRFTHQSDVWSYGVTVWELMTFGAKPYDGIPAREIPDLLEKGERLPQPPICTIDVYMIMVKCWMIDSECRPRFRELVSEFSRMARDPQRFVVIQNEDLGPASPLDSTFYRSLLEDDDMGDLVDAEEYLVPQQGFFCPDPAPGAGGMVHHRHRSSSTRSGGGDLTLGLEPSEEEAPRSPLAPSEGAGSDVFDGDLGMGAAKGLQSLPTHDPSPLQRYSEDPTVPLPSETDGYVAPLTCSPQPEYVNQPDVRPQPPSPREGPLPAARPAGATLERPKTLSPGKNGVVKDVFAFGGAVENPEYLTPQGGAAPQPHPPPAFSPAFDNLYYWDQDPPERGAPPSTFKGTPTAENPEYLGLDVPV

Compound | IC50 [3] [nM] | half-life ([5]; iv, vein (tail vein injection)) [h] | AUC(0-t) ([5]; iv, vein (tail vein injection)) [ng·h/mL] | MRT ([5]; iv, vein (tail vein injection)) [h] | CL/F ([5]; po, gavage) [mL/min/kg] | half-life ([5]; po, gavage) [h] | AUC(0-t) ([5]; po, gavage) [ng·h/mL] | Cmax ([5]; po, gavage) [ng/mL] | MRT ([5]; po, gavage) [h] | Vd/F ([5]; po, gavage) [L/kg] | bioavailability ([5]; po) [%] | also measured
CCOc1cc2ncc(C#N)c(Nc3ccc(OCc4ccccn4)c(Cl)c3)c2cc1NC(=O)/C=C/[C@H]1CCCN1C.Cc1ccc(S(=O)(=O)O)cc1 [Example 7, (E)-N-[4-[[3-chloro-4-(2-pyridylmethoxy)phenyl]amino]-3-cyano-7-ethoxy-6-quinolyl]-3-[(2R)-1-methylpyrrolidin-2-yl]prop-2-enamide p-toluenesulfonate] | 64 | 3.12 ± 0.37 | 113000 ± 62100 | 4.2 ± 0.99 | 10.5 | 3.52 ± 0.69 | 44300 ± 16000 | 5160 ± 1640 | 7.9 ± 0.74 | 3.23 ± 1.65 | 39.2 | IC50 ([1]; p-toluenesulfonate): 38 nM; IC50 ([2]; p-toluenesulfonate): 45 nM; solubility ([4]; physiological saline, saline or isotonic, physiological saline, read-out: Solubility Value, Physiological saline): 100 µg/mL; solubility ([4]; water, read-out: Solubility Value, Water): 5390 µg/mL; solubility ([6]; 0.1 M hydrochloric acid, simulated gastric fluid): 31900 µg/mL
CCOc1cc2ncc(C#N)c(Nc3ccc(OCc4ccccn4)c(Cl)c3)c2cc1NC(=O)/C=C/[C@H]1CCCN1C [Example 9, (E)-N-[4-[[3-chloro-4-(2-pyridylmethoxy)phenyl]amino]-3-cyano-7-ethoxy-6-quinolyl]-3-[(2R)-1-methylpyrrolidin-2-yl]prop-2-enamide dihydrochloride] | 46 | 4.75 ± 0.32 | 115000 ± 33100 | 5.54 ± 0.58 | 6.67 | 3.47 ± 0.18 | 66100 ± 17200 | 5870 ± 1610 | 7.96 ± 0.7 | 1.99 ± 0.49 | 57.6 | IC50 ([1]; dihydrochloride): 49 nM; IC50 ([2]; dihydrochloride): 69 nM; Solubility Value, Physiological saline ([4]; physiological saline, dihydrochloride): 0.2 mg/mL; Solubility Value, Water ([4]; water, dihydrochloride): 150 µg/mL; Solubility Value, 0.1M Hydrochloric acid ([6]; 0.1M hydrochloric acid, dihydrochloride): 16590 µg/mL
